{
  "source": "patent US9249154B2",
  "about": "“Compounds and therapeutic use thereof for protein kinase inhibition” (priority 2008, dated 2016)",
  "key": {"[1]": {"system": "Human Ovarian cancer (A2780)", "assay": "In vitro anti-cancer cell activity (cellular toxicity, SRB and MTT methods, 72 hours)", "type": "cell-based", "settings": "read-out: In vitro anti-cancer cell activities IC50, Human Ovarian cancer (A2780)"}, "Mouse Lung Cancer (3LL)": {"system": "Mouse Lung Cancer (3LL)", "assay": "In vitro anti-cancer cell activity (cellular toxicity, SRB and MTT methods, 72 hours)", "type": "cell-based", "settings": "read-out: In vitro anti-cancer cell activities IC50, Mouse Lung Cancer (3LL)"}, "[2]": {"system": "transplanted human colon cancer HT-99", "assay": "Effects on HT99 transplanted nude mice", "type": "in vivo", "settings": "60 mg/kg ip, d0, 1; for RTV (relative tumor volume) / TV dn: X ± SD; for TV dn: dn = 17 days after drug treatment"}, "Human colon cancer HT-29": {"system": "Human colon cancer HT-29", "assay": "In vitro anti-cancer cell activity (cellular toxicity, SRB and MTT methods, 72 hours)", "type": "cell-based", "settings": "read-out: In vitro anti-cancer cell activities IC50, Human colon cancer HT-29"}, "[3]": {"system": "Human Gastric Cancer (BGC-823)", "assay": "In vitro anti-cancer cell activity (cellular toxicity, SRB and MTT methods, 72 hours)", "type": "cell-based", "settings": "read-out: In vitro anti-cancer cell activities IC50, Human Gastric Cancer (BGC-823)"}},
  "note": "Like-named read-outs stand apart in the source and are kept apart here.",
  "data": [
    {"compound": "2-(4-chlorophenyl)-4-(3-α-thiapyranmethy)-thieno[2,3-d]pyridazine-7-carboxylic acid amide [Compound 11]", "values": [
      {"measurement": "IC50", "setting": "[1]", "value": 11.8, "unit": "µM"},
      {"measurement": "IC50", "setting": "Mouse Lung Cancer (3LL)", "value": 8.43, "unit": "µM"},
      {"measurement": "T/C", "setting": "[2]", "value": 113.4, "unit": "%"},
      {"measurement": "RTV (relative tumor volume)", "setting": "[2]", "value": "7.52 ± 0.26"},
      {"measurement": "TV dn", "setting": "[2]", "value": "1224 ± 440", "unit": "mm^3"},
      {"measurement": "IC50", "setting": "Human colon cancer HT-29", "value": 10.7, "unit": "µM"},
      {"measurement": "IC50", "setting": "[3]", "value": 9.24, "unit": "µM"}
    ]},
    {"compound": "NC(=O)c1nnc(CC2CCNCC2)c2cc(-c3ccc(Cl)cc3)sc12", "note": "[Compound 5, 2-(4-chlorophenyl)-4-(4-piperidinemethy)-thieno[2,3-d]pyridazine-7-carboxylic acid amide]", "values": [
      {"measurement": "T/C", "setting": "[2]", "value": 96.5, "unit": "%"},
      {"measurement": "RTV (relative tumor volume)", "setting": "[2]", "value": "6.40 ± 0"},
      {"measurement": "TV dn", "setting": "[2]", "value": "910 ± 0", "unit": "mm^3"}
    ]},
    {"compound": "NC(=O)c1nnc(Cc2ccncc2)c2cc(-c3ccc(Cl)cc3)sc12", "note": "[Compound 13, 2-(4-chlorophenyl)-4-(4-pyridinemethy)-thieno[2,3-d]pyridazine-7-carboxylic acid amide]", "values": [
      {"measurement": "IC50", "setting": "[1]", "value": 1.18, "unit": "µM"},
      {"measurement": "IC50", "setting": "Mouse Lung Cancer (3LL)", "value": 1.24, "unit": "µM"},
      {"measurement": "IC50", "setting": "Human colon cancer HT-29", "value": 0.73, "unit": "µM"},
      {"measurement": "IC50", "setting": "[3]", "value": 2.62, "unit": "µM"}
    ]},
    {"compound": "NC(=O)c1nnc(Cc2cc[nH]c2)c2cc(-c3ccc(Cl)cc3)sc12", "note": "[Compound 14, 2-(4-chlorophenyl)-4-(3-pyrrolemethy)-thieno[2,3-d]pyridazine-7-carboxylic acid amide]", "values": [
      {"measurement": "IC50", "setting": "[1]", "value": 6.01, "unit": "µM"},
      {"measurement": "IC50", "setting": "Mouse Lung Cancer (3LL)", "value": 8.59, "unit": "µM"},
      {"measurement": "IC50", "setting": "Human colon cancer HT-29", "value": 16.8, "unit": "µM"},
      {"measurement": "IC50", "setting": "[3]", "value": 30.5, "unit": "µM"}
    ]},
    {"compound": "NC(=O)c1nnc(Cc2ccoc2)c2cc(-c3ccc(Cl)cc3)sc12", "note": "[Compound 15, 2-(4-chlorophenyl)-4-(3-furanmethy)-thieno[2,3-d]pyridazine-7-carboxylic acid amide]", "values": [
      {"measurement": "IC50", "setting": "[3]", "value": 2.25, "unit": "µM"}
    ]},
    {"compound": "CN(C)C(=O)c1nnc(CC2CCCOC2)c2cc(-c3ccc(Cl)cc3)sc12", "note": "(centres unmarked) [Compound 19]", "values": [
      {"measurement": "T/C", "setting": "[2]", "value": 68.3, "unit": "%"},
      {"measurement": "RTV (relative tumor volume)", "setting": "[2]", "value": "4.53 ± 0.82"},
      {"measurement": "TV dn", "setting": "[2]", "value": "663 ± 86", "unit": "mm^3"}
    ]},
    {"compound": "NC(=O)c1nnc(CC2CCNC2)c2cc(-c3ccc(Br)cc3)sc12", "note": "(centres unmarked) [Compound 22]", "values": [
      {"measurement": "T/C", "setting": "[2]", "value": 70.7, "unit": "%"},
      {"measurement": "RTV (relative tumor volume)", "setting": "[2]", "value": "4.69 ± 0.71"},
      {"measurement": "TV dn", "setting": "[2]", "value": "714 ± 127", "unit": "mm^3"}
    ]},
    {"compound": "NC(=O)c1nnc(CC2CCOC2)c2cc(-c3ccc(F)cc3)sc12", "note": "(centres unmarked) [Compound 23]", "values": [
      {"measurement": "IC50", "setting": "Mouse Lung Cancer (3LL); Mus musculus", "value": "> 100", "unit": "µM"}
    ]},
    {"compound": "NC(=O)c1nnc(CC2CCOC2)c2cc(-c3ccc(Cl)cc3)sc12", "note": "(centres unmarked) [Compound 24]", "values": [
      {"measurement": "IC50", "setting": "[1]; Homo sapiens", "value": "> 100", "unit": "µM"},
      {"measurement": "IC50", "setting": "Mouse Lung Cancer (3LL); Mus musculus", "value": "> 100", "unit": "µM"},
      {"measurement": "IC50", "setting": "Human colon cancer HT-29; Homo sapiens", "value": "> 100", "unit": "µM"},
      {"measurement": "IC50", "setting": "[3]; Homo sapiens", "value": 24.6, "unit": "µM"}
    ]},
    {"compound": "NC(=O)c1nnc(CC2CCNC2)c2cc(-c3ccc(Cl)cc3)sc12", "note": "(centres unmarked) [Compound 30]", "values": [
      {"measurement": "T/C", "setting": "[2]", "value": 57.0, "unit": "%"},
      {"measurement": "RTV (relative tumor volume)", "setting": "[2]", "value": "3.78 ± 1.09"},
      {"measurement": "TV dn", "setting": "[2]", "value": "482 ± 83", "unit": "mm^3"}
    ]},
    {"compound": "NC(=O)c1nnc(CC2CCNC2)c2cc(-c3ccc(Cl)cc3)sc12", "note": "(centres unmarked) [Compound 31]", "values": [
      {"measurement": "T/C", "setting": "[2]", "value": 80.8, "unit": "%"},
      {"measurement": "RTV (relative tumor volume)", "setting": "[2]", "value": "5.36 ± 1.94"},
      {"measurement": "TV dn", "setting": "[2]", "value": "785 ± 300", "unit": "mm^3"}
    ]},
    {"compound": "NC(=O)c1nnc(Cc2cccnc2)c2cc(-c3ccc(F)cc3)sc12", "note": "[Compound 38]", "values": [
      {"measurement": "IC50", "setting": "Mouse Lung Cancer (3LL); Mus musculus", "value": 3.13, "unit": "µM"}
    ]},
    {"compound": "CN(C)C(=O)c1nnc(Cc2ccoc2)c2cc(-c3ccc(Cl)cc3)sc12", "note": "[Compound 70]", "values": [
      {"measurement": "IC50", "setting": "Mouse Lung Cancer (3LL); Mus musculus", "value": "> 100", "unit": "µM"}
    ]}
  ]
}
